From patent US10350315B2, “Quinoline-3-carboxamide compounds and their use in diagnosis” (Westfaelische Wihelms-Universitaet Muenster, priority 2014, dated 2019) come the findings set out here.

pKd: −log10 of the molar value.

The target in the assay is T1, murine S100A9 (Mus musculus, UniProt P31725).
T1 sequence (P31725 1-113): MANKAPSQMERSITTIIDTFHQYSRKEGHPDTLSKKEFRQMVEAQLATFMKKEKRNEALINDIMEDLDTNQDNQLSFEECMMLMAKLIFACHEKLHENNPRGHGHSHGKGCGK
Kind of assay: Binding constant to coated S100A9 by fluorimetric measurement (one site saturation model). The settings on record: murine S100A9 homodimer coated, 1 h at 4° C. As for the experimental part:
FIG. 15: Binding of Cy5.5-CES271 to human and murine S100A9. Estimation of the binding constant of Cy5.5-CES271 to human (A) and murine (B) S100A9. The constant was calculated using the one site saturation regression model. Each dot represents the mean value of four independent experiments.
The binding constant of Cy5.5-CES271 to murine and human S100A9 was determined by fluorimetric measurements. 0.3788 μM S100A9 (5 μg ml^−1 of homodimer S100A9) solved in 50 μl PBS was coated to the bottom of a 96-well plate and served as capturing molecule. For each S100A9 coated well a control well was used with 50 μl PBS alone. After a washing step, unspecific binding sites were blocked by PBS/5% skim milk powder. Cy5.5-CES271 was added at increasing concentrations. After 1 h incubation at 4° C., the supernatants were removed and the fluorescence intensity was measured with a fluorimeter. Non-linear regression analysis was performed with a one site saturation model, to calculate the binding constant of Cy5.5-CES271 to either murine or human S100A9. […] A strong binding affinity of the tracer to S100A9 could be observed that is not affected by the attachment of Cy5.5 to CES271.

For “3-ethyl-2((1E,3E,5E)-5-(3-(1-(5-ethyl-4-hydroxy-1-methyl-2-oxo-1,2-dihydroquinolin-3-yl)-1,15-dioxo-2-phenyl-5,8,11-trioxa-2,14-diazanonadecan-19-yl)-1,1-dimethyl-6,8-disulfonato-1H-benzo[e]indol-2(3H)-ylidene)penta-1,3-dien-1-yl)-1,1-dimethyl-1H-benzo[e]indol-3-ium-6,8-disulfonate [Cy5.5-CES271]”, the pKd (in general, the Kd on a negative log10 scale, so that one unit is a factor of ten) was 5.58.
